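A five-concentration, 48-hour dose response in 96-well plates underlies each endpoint, interpolated linearly between surrounding concentrations. GI50: concentration for 50% inhibition of growth.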 Activity calls are given as the source filed them. Rule as the data show it: active = GI50 up to about 1.1 µM and inactive = higher.
Legend:
Test in all cases: inhibition of tumour cell growth, NCI panel, 48 h
[1] = test system: HOP-92
[2] = test system: M14
[3] = test system: HOP-62
[4] = test system: KM-20L2
[5] = test system: NCI-H522
[6] = test system: TK-10
[7] = test system: LOX IMVI
[8] = test system: RPMI-8226
[9] = test system: HT-29
[10] = test system: ACHN
[11] = test system: HL-60
[12] = test system: IGROV-1
[13] = test system: A549
[14] = test system: SK-MEL-5
[15] = test system: SK-MEL-28
[16] = test system: NCI-H23
[17] = test system: SF-268

Measured: GI50

CC(=O)Nc1ccccc1-c1cnc2ccccc2n1
inactive: [1] > 100 µM | [2] > 100 µM | [3] > 100 µM | [4] > 100 µM | [5] > 100 µM | [6] > 100 µM | [7] > 100 µM | [8] > 100 µM | [9] > 100 µM | [10] > 100 µM | [11] > 100 µM | [12] > 100 µM | [13] > 100 µM | [14] > 100 µM | [15] > 100 µM | [16] > 100 µM | [17] > 100 µM

COC(=O)[C@H](CC(C)C)NC(=O)[C@H](Cc1ccccc1)N1CC2C=CC1C2 (stereo partly drawn)
inactive: [1] 96.6 µM | [2] > 100 µM | [3] > 100 µM | [4] > 100 µM | [5] > 100 µM | [6] > 100 µM | [7] > 100 µM | [8] 29.1 µM | [9] > 100 µM | [10] > 100 µM | [11] 47.6 µM | [12] > 100 µM | [13] > 100 µM | [14] > 100 µM | [15] > 100 µM | [16] > 100 µM | [17] > 100 µM

Cc1c(C(=O)CSc2nc3ccccc3[nH]2)c(=O)n(-c2ccccc2)n1C
inactive: [1] > 100 µM | [2] > 100 µM | [3] > 100 µM | [4] > 100 µM | [5] > 100 µM | [6] > 100 µM | [7] > 100 µM | [8] > 100 µM | [9] > 100 µM | [10] > 100 µM | [11] > 100 µM | [12] > 100 µM | [13] > 100 µM | [14] > 100 µM | [15] > 100 µM | [16] > 100 µM | [17] > 100 µM

COc1ccc2nc(NC(=O)C(=O)C(C(=O)c3ccccc3-c3ccccc3)C3OC(=O)c4ccccc43)sc2c1 (stereo not drawn)
inactive: [1] 16.5 µM | [2] 19 µM | [3] 16.2 µM | [4] 25.1 µM | [5] 9.89 µM | [6] 25.2 µM | [7] 17 µM | [8] 10.7 µM | [9] 36.6 µM | [10] 26 µM | [11] 16 µM | [12] 25.8 µM | [13] 23.8 µM | [14] 16.2 µM | [15] 20.5 µM | [16] 13.8 µM | [17] 20 µM
